# Legend:
# Assay type in all cases: biochemical
# [1] = target: T1, human fibroblasts derived MMP-1 (type I collagenase) (Homo sapiens, UniProt P03956); experiment: MMP-1 (type I collagenase) inhibitory activities, fluorogenic substrate enzyme assay; conditions: for inhibition at 10 µM: at 10^−5M, NE means no effect, read-out: MMP-1 inhibition percent; for IC50: 37° C., 4 h, substrate 10 μM
# T1 construct: human fibroblasts derived MMP-1 (Yagai Co. Ltd.) as enzyme; purchased Yagai Co. Ltd; host or cells: human fibroblasts
# T1 sequence (P03956 100-469): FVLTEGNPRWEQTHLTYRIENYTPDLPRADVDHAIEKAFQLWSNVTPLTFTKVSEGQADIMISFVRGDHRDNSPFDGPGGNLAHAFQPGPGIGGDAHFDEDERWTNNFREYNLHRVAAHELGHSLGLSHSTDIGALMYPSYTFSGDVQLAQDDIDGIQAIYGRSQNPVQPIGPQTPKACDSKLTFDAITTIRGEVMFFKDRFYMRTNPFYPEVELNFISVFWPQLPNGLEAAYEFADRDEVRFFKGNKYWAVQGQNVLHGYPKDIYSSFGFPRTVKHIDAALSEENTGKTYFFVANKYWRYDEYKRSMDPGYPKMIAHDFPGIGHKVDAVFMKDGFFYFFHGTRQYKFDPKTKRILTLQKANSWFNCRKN
# Description: Examination 1: MMP-1 (type I collagenase) inhibitory activities.
# Inhibitory activities of MMP-1 (type I collagenase) activities were estimated by enzyme assay using human fibroblasts derived MMP-1 (Yagai Co. Ltd.) as enzyme, and MOCAc-Pro-Leu-Gly-Leu-A2pr(Dnp)-Ala-Arg-NH2 (Peptide Research Center, 3163-v) as substrate. Thus, MMP-1 (0.01 U/ml), test compound (10^−10˜10^−5 M), and the substrate (10 μM) were incubated in 50 mM Tris-HCl buffer (pH 7.4) containing 0.2M NaCl, 10 mM CaCl2, 0.02% NaN3, and 0.05% Brij 35 at 37° C. for 4 h. The reaction was stopped by adding of 4 volumes of sodium acetate buffer (pH 4.0), and the degradation of substrate was calculated by measurement with a fluorescence intensity (λ ex 328 nm, λ em 393 nm). Inhibition of degradation of substrate in the presence of compound was determined by comparison with the degradation percent of substrate in the absence of compound, and concentration of 50% inhibition (IC50 value) was calculated.
# MMP-9 (gelatinase B) = target: T2, MMP-9 (gelatinase B) (Homo sapiens, UniProt P14780); experiment: MMP-9 (gelatinase B) inhibitory activities, fluorogenic substrate enzyme assay; conditions: for IC50: 42° C., 3 h, substrate 10 μM
# T2 construct: MMP-9, derived human fibrosarcome (Yagai Co. Ltd.), were used as enzyme respectively; purchased Yagai Co. Ltd; host or cells: human fibrosarcoma
# T2 sequence (P14780 94-707): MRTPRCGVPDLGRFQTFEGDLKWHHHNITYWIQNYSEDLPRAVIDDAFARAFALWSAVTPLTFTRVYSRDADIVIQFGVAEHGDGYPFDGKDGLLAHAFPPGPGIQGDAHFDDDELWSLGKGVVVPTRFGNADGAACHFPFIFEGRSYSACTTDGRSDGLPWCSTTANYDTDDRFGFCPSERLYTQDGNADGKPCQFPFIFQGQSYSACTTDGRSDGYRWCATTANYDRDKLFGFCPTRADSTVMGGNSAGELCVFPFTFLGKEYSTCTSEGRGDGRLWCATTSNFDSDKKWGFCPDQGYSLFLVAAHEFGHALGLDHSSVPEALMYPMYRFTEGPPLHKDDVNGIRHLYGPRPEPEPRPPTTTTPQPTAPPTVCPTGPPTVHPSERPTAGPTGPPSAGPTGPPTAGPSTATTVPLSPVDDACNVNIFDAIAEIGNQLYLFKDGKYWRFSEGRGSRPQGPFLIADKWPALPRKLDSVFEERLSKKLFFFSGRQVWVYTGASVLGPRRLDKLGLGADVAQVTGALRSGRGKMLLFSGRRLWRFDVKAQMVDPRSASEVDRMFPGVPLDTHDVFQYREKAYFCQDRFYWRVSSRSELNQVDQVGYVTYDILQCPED
# Description: (§1) Examination 2: MMP-2 (gelatinase A) and MMP-9 (gelatinase B) inhibitory activities.
# (§2) Pro MMP-2 was obtained from culture medium separated from human pro-MMP-2 cDNA tranfected COS-1 cells. Pro MMP-2 activated by 1 mM (4-aminophenyl) mercury acetic acid and MMP-9, derived human fibrosarcome (Yagai Co. Ltd.), were used as enzyme respectively. Inhibition of both enzyme activities were estimated by enzyme assay using MOCAc-Pro-Leu-Gly-Leu-A2pr(Dnp)-Ala-Arg-NH2 (Peptide Research Center, 3163-v) as substrate. Thus, MMP-2 or MMP-9 (0.01 U/ml), test compound (several concentrations), and the substrate (10 μM) were incubated in 50 mM Tris - HCl buffer (pH 7.4) containing 0.2M NaCl, 10 mM CaCl2, 0.02% NaN3, and 0.05% Brij 35 at 42° C. for 2 h (MMP-2), 3 h (MMP-9) respectively. Inhibition of degradation of substrate in the presence of compound was determined by comparison with the degradation of substrate in the absence of compound, and concentration of 50% inhibition (IC50 value) was calculated.
# MMP-2 (gelatinase A) = target: T3, MMP-2 (gelatinase A) (Homo sapiens, UniProt P08253); experiment: MMP-2 (gelatinase A) inhibitory activities, fluorogenic substrate enzyme assay; conditions: 42° C., 2 h, substrate 10 μM
# T3 construct: made in house; host or cells: COS-1 cells (secreted into culture medium)
# T3 sequence (P08253 110-660): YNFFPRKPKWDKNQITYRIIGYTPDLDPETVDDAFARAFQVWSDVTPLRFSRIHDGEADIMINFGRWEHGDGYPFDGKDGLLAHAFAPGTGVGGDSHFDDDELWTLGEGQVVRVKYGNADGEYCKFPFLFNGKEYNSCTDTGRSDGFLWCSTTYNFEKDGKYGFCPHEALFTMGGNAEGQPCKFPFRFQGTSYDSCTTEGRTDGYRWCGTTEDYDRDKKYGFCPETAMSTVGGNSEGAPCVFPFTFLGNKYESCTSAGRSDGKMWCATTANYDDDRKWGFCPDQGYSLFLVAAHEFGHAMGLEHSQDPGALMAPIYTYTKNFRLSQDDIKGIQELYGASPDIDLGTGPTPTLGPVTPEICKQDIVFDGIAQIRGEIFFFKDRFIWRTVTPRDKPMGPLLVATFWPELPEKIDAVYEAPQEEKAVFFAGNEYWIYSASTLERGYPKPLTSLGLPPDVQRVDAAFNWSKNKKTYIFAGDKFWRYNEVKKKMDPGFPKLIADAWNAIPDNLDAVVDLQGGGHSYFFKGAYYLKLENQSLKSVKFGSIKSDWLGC
# Description: as §1, §2
# Δ MT1-MMP (Δ MMP-14) = target: T4, Δ MT1-MMP (Δ MMP-14) (Homo sapiens, UniProt P50281); experiment: Δ MT1-MMP (Δ MMP-14) inhibitory activities, fluorogenic substrate enzyme assay; conditions: 37° C., 30 min, substrate 10 μM; read-out: ΔMMP-14 IC50
# T4 construct: ProMT1-MMP cDNA encoded extracellular domain of pro Δ MT1-MMP was tranfected E. coli BL21DE3; made in house; host or cells: E. coli BL21DE3 (inclusion bodies, 8M urea, ion exchange)
# From the text: Examination 3: Δ MT1-MMP (Δ MMP-14) inhibitory activities.
# ProMT1-MMP cDNA encoded extracellular domain of pro Δ MT1-MMP was tranfected E. coli BL21DE3, pro Δ MT1-MMP collected as inclusion body was solved using 8M urea, and it was pulified by ion exchenge column chlomatography. Inhibition of enzyme activities were estimated by enzyme assay using activated Δ MT1-MMP, obtained from activation of pro Δ MT1-MMP by 10 μ/ml tripsine, and MOCAc-Pro-Leu-Gly-Leu-A2pr(Dnp)-Ala-Arg-NH2 (Peptide Research Center, 3163-v) as substrate. Thus, Δ MT1-MMP, test compound (several concentrations), and the substrate (10 μM) were incubated in 50 mM Tris - HCl buffer (pH 7.4) containing 0.2M NaCl, 10 mM CaCl2, 0.02% NaN3, 0.05% Brij 35, and 10 μM leuipeputine at 37° C. for 30 min. The reaction was stopped by adding of 4 volumes of sodium acetate buffer (pH 4.0), and the degradation of substrate was calculated by measurement with a fluorescence intensity (λ ex 328 nm, λ em 393 nm). Inhibition of degradation of substrate in the presence of compound was determined by comparison with the degradation of substrate in the absence of compound, and concentration of 50% inhibition (IC50 value) was calculated.
SMILES,inhibition at 10 µM [1],"inhibition at 10 µM (MMP-9 (gelatinase B); at 10^−5M, read-out: MMP-9 inhibition percent)",IC50 (MMP-2 (gelatinase A)),IC50 (Δ MT1-MMP (Δ MMP-14)),IC50 (MMP-9 (gelatinase B)),IC50 [1]
"CC(C)CCC(=O)N[C@@H]1CCN(S(=O)(=O)c2ccccc2-c2ccc(O)cc2)[C@@H](C(=O)NO)C1 [Compound 55, (2R, 4R)-2-Hydroxyaminocarbonyl-1-[2-(4-hydroxyphenyl)benzenesulfonyl]-4-(4-methylpentanoylamino)-piperidine]",29.5%,34.8%,2400 nM,3000 nM,,
"COc1ccc(-c2ccc(S(=O)(=O)N3CC[C@@H](NC(=O)c4c[nH]c5ccccc45)C[C@@H]3C(=O)NO)cc2)cc1 [Compound 76, (2R, 4R)-2-Hydroxyaminocarbonyl-4-(3-indolecarbonylamino)-1-[4-(4-methoxyphenyl)benzenesulfonyl]-piperidine]",12.9%,,12 nM,96 nM,21 nM,
"COc1ccc(C(=O)N[C@@H]2CCN(S(=O)(=O)c3ccc(OC)cc3)[C@@H](C(=O)NO)C2)cc1 [Compound 47, (2R, 4R)-2-Hydroxyaminocarbonyl-1-(4-methoxybenzenesulfonyl)-4-(4-methoxybenzoylamino)-piperidine]",,,1.7 nM,3.2 nM,1.3 nM,5500 nM
"CC(C)CCC(=O)N[C@@H]1CCN(S(=O)(=O)c2ccc(-c3ccc([N+](=O)[O-])cc3)cc2)[C@@H](C(=O)NO)C1 [Compound 67, (2R, 4R)-2-Hydroxyaminocarbonyl-4-(4-methylpentanoylamino)-1-[4-(4-nitrophenyl)benzenesulfonyl]-piperidine]",,,22 nM,1500 nM,36 nM,1200 nM
"COc1ccc(-c2ccc(S(=O)(=O)N3CC[C@@H](NCc4ccccc4)C[C@@H]3C(=O)NO)cc2)cc1 [Compound 56, (2R, 4R)-4-Benzylamino-2-hydroxyaminocarbonyl-1-[4-(4-methoxyphenyl)benzenesulfonyl]-piperidine]",,,0.49 nM,16 nM,0.36 nM,1300 nM
"COc1ccc(OCCCCC(=O)N[C@@H]2CCN(S(=O)(=O)c3ccc(OC)cc3)[C@@H](C(=O)NO)C2)cc1 [Compound 46, (2R, 4R)-2-Hydroxyaminocarbonyl-1-(4-methoxybenzenesulfonyl)-4-[5-(4-methoxyphenoxy)pentanoylamino]-piperidine]",,,1.5 nM,4.3 nM,0.88 nM,7600 nM
"COc1ccc(S(=O)(=O)N2CC[C@@H](NC(=O)CCC(C)C)C[C@@H]2C(=O)NO)cc1 [Compound 45, (2R, 4R)-2-Hydroxyaminocarbonyl-1-(4-methoxybenzenesulfonyl)-4-(4-methylpentanoylamino)-piperidine]",45.3%,,1.7 nM,16 nM,1.4 nM,
"COc1ccc(S(=O)(=O)N2CC[C@H](NC(C)=O)C[C@H]2C(=O)NO)cc1 [Compound 81, (2S, 4S)-4-Acetylamino-2-hydroxyaminocarbonyl-1-(4-methoxybenzenesulfonyl)-piperidine]",37.3%,,220 nM,89 nM,390 nM,
"CC(=O)N[C@@H]1CCN(S(=O)(=O)c2ccc(-c3ccc(Cl)cc3)cc2)[C@@H](C(=O)NO)C1 [Compound 72, (2R, 4R)-4-Acetylamino-1-[4-(4-chlorohenyl)benzenesulfonyl]-2-hydroxyaminocarbonyl-piperidine]",,,3 nM,23 nM,1.1 nM,37 nM
"COc1ccc(S(=O)(=O)N2CC[C@@H](NC(C)=O)C[C@@H]2C(=O)NO)cc1 [Compound 66, (2R, 4R)-4-Acetylamino-2-hydroxyaminocarbonyl-1-(4-methoxybenzenesulfonyl)-piperidine]",,,4.2 nM,2.1 nM,8.6 nM,530 nM
"COc1ccc(-c2ccccc2S(=O)(=O)N2CC[C@@H](NC(=O)CCC(C)C)C[C@@H]2C(=O)NO)cc1 [Compound 54, (2R, 4R)-2-Hydroxyaminocarbonyl-1-[2-(4-methoxyphenyl)benzenesulfonyl]-4-(4-methylpentanoylamino)-piperidine]",45.8%,,380 nM,200 nM,1800 nM,
"COc1ccc(C(=O)N[C@@H]2CCN(S(=O)(=O)c3ccc(-c4ccc(OC)cc4)cc3)[C@@H](C(=O)NO)C2)cc1 [Compound 48, (2R, 4R)-2-Hydroxyaminocarbonyl-4-(4-methoxybenzoylamino)-1-[4-(4-methoxyphenyl)benzenesulfonyl]-piperidine]",35.5%,,0.55 nM,310 nM,0.4 nM,
"O=C(N[C@@H]1CCN(S(=O)(=O)c2ccc(-c3ccc(O)cc3)cc2)[C@@H](C(=O)NO)C1)c1ccccc1 [Compound 60, (2R, 4R)-4-Benzoylamino-2-hydroxyaminocarbonyl-1-[4-(4-hydroxyphenyl)benzenesulfonyl]-piperidine]",,,2.9 nM,130 nM,890 nM,4900 nM
"COc1ccc(-c2ccc(S(=O)(=O)N3CC[C@@H](NC(=O)c4ccccc4)C[C@@H]3C(=O)NO)cc2)cc1 [Compound 59, (2R, 4R)-4-Benzoylamino-2-hydroxyaminocarbonyl-1-[4-(4-methoxyphenyl)benzenesulfonyl]-piperidine]",57.6%,,180 nM,95 nM,11 nM,
